Measurements published in patent publication US6084130A, “Aryl substituted bicyclic amines as selective dopamine D3 ligands” (Pharmacia & Upjohn Company, priority 1997, dated 2000).

Tests used:
[1] = molecular target: T1, D3-DOP-CLONE (Rattus norvegicus, UniProt P19020); assay: Competition binding against [3H]-7-OH-DPAT, cloned rat D3 receptors expressed in CHO-K1 cells (Table II); details: ligand 7-OH-DPAT (0.5 nM)
T1 construct: expressed in transfected cells; host or cells: CHO-K1
Description: (§1) As was done for Table I, competition binding experiments employed eleven dilutions of test compounds of Formula II competing with [^3 H]-5-(dipropylamino)-5,6-dihydro-4H-imidazo(4,5,1-ij)quinolin-2(1H)-one (R-enantiomer) ("86170") (62 Ci/mmol, 2 nM) and [^3 H]-7-OH-DPAT ("7-OH-DPAT") (107 Ci/mmol, 0.5 nM) for D2 and D3 binding sites, respectively. (Lahti, R. A., Eur. J. Pharmacol., 202, 289 (1991)) In each experiment, cloned rat receptors expressed in CHO-K1 cells were used. (Chio, C. L., Nature, 343, 266 (1990); and Huff, R. M., Mol. Pharmacol., 45, 51-60 (1993). Ki values were calculated with the Chen-Prushoff equation. The results are shown in Table II for compounds prepared under Scheme 5.

[2] = molecular target: T2, D2-DOP-CLONE (Rattus norvegicus, UniProt P61169); assay: Competition binding against [3H]-86170, cloned rat D2 receptors expressed in CHO-K1 cells (Table II); details: ligand 86170 (2 nM)
T2 construct: expressed in transfected cells; host or cells: CHO-K1
Description: as §1

[3] = molecular target: T2, D2-DOP-CLONE; assay: Competition binding against [3H]-86170, cloned rat D2 receptors expressed in CHO-K1 cells (Table I); design: key to Ki (nM): *: indicates compound was inactive; details: ligand 86170 (2 nM)
Description: (§2) Competition binding experiments employed eleven dilutions of test compounds of Formula I competing with [^3 H]-5-(dipropylamino)-5,6-dihydro-4H-imidazo(4,5,1-ij)quinolin-2(1H)-one (R-enantiomer) ("86170") (62 Ci/mmol, 2 nM) and [^3 H]-spiperone ("SPI") (107 Ci/mmol, 0.5 nM) for D2 and D3 binding sites, respectively. (Lahti, R. A., Eur. J. Pharmacol., 202, 289 (1991)) In each experiment, cloned rat receptors expressed in CHO-K1 cells were used. (Chio, C. L., Nature, 343, 266 (1990); and Huff, R. M., Mol. Pharmacol. 45, 51-60 (1993)).

[4] = molecular target: T1, D3-DOP-CLONE; assay: Competition binding against [3H]-spiperone, cloned rat D3 receptors expressed in CHO-K1 cells (Table I); design: key to Ki (nM): *: indicates compound was inactive; details: ligand SPI (0.5 nM)
Description: as §2

[5] = test system: Dopamine; assay: Dopamine screen; type: binding

T1 sequence (P19020 whole entry): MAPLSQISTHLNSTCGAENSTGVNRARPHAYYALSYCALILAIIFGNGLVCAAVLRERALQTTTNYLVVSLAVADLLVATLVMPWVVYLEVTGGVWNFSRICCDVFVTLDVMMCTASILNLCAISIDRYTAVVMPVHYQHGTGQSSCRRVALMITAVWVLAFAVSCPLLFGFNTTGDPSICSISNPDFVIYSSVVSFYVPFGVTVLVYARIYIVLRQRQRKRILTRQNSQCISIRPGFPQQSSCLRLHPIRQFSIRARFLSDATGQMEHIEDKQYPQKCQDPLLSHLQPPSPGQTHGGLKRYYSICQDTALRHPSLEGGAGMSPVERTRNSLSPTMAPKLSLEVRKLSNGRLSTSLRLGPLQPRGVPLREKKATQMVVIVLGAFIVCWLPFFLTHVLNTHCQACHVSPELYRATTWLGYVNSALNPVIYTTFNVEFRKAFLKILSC
T2 sequence (P61169 whole entry): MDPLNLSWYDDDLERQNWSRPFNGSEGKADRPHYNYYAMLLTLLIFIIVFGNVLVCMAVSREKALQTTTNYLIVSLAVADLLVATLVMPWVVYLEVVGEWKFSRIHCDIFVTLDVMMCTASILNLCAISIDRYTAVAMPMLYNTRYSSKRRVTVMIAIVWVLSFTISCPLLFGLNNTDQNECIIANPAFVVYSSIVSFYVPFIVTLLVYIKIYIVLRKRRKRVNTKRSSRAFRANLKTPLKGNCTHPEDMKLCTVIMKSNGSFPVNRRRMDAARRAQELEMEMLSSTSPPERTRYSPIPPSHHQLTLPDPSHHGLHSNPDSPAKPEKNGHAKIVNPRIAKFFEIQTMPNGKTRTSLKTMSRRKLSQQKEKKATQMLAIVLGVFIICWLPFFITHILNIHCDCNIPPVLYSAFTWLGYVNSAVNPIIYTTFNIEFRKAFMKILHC

Row | Ki [3] [nM] | Ki [4] [nM] | Compound | also measured
1 | 1680 | 1450 | CCCN(CCC)[C@@H]1CCc2ccc(CNS(=O)(=O)c3cn(C)cn3)cc2C1 [Example 6, (R)-N-[[7-(Dipropylamino)-5,6,7,8-tetrahydro-2-naphthalenyl]methyl]1-methyl-1H-imidazole-4-sulfonamide] | –
2 | 177 | 87 | CCCN(CCC)[C@@H]1CCc2ccc(CNC(=O)c3ccc(Cl)cc3)cc2C1 [Example 8, (R)-4Chloro-N-[[7-(dipropylamino)-5,6,7,8-tetrahydro-2-naphthalenyl]methyl]benzamide] | –
3 | > 2240 | 195 | CCCN(CCC)[C@@H]1CCc2ccc(NS(=O)(=O)c3ccc(C#N)cc3)cc2C1 [Example 11, (R)-4-Cyano-N-[7-(dipropylamino)-5,6,7,8-tetrahydro-2-naphthalenyl]benzenesulfonamide] | –

Further lines, the compound ahead of its results:

Row | Compound | Ki [3] [nM] | Ki [4] [nM] | also measured
4 | CCCNC1CCc2nc(OS(=O)(=O)c3ccc(Cl)cc3)ccc2C1 (centres unmarked) [Compound 52] | – | – | Ki [1]: 6 nM; Ki [2]: 357 nM
5 | CCCN(CCC)C1CCc2nc(OS(=O)(=O)c3ccc(Cl)cc3)ccc2C1 (centres unmarked) [Compound 53] | – | – | Ki [1]: 3 nM; Ki [2]: 184 nM
6 | CCCN(CCC)[C@@H]1CCc2ccc(CNS(=O)(=O)c3ccc(C#N)cc3)cc2C1 [Example 2, (R)-4-Cyano-N-[[7-(dipropylamino)-5,6,7,8-tetrahydro-2-naphthalenyl]methyl]benzenesulfonamide] | 1440 | 32 | –
7 | CCCN(CCC)[C@@H]1CCc2ccc(CNS(=O)(=O)c3ccc(Cl)cc3)cc2C1 [Example 3, (R)-4-Chloro-N-[[7-(dipropylamino)-5,6,7,8-tetrahydro-2-naphthalenyl]methyl]benzenesulfonamide] | 206 | 12 | –
8 | CCCN(CCC)[C@@H]1CCc2ccc(CNS(=O)(=O)c3ccc([N+](=O)[O-])cc3)cc2C1 [Example 4, (R)-4-Nitro-N-[[7-(dipropylamino)-5,6,7,8-tetrahydro-2-naphthalenyl]methyl]benzenesulfonamide] | 772 | 109 | –
9 | CCCN(CCC)[C@@H]1CCc2ccc(CNS(=O)(=O)c3cccc(C#N)c3)cc2C1 [Example 5, (R)-3-Cyano-N-[[7-(dipropylamino)-5,6,7,8-tetrahydro-2-naphthalenyl]methyl]benzenesulfonamide] | 786 | – | activity in dopamine screen [5]: Inactive; Ki (nM) [4]: *
10 | CCCN(CCC)[C@@H]1CCc2ccc(CNC(=O)c3ccc(C#N)cc3)cc2C1 [Example 9, (R)-4-Cyano-N-[[7-(dipropylamino)-5,6,7,8-tetrahydro-2-naphthalenyl]methyl]benzamide] | – | – | Ki (nM) [3]: *; Ki (nM) [4]: *
11 | CCCN(CCC)[C@@H]1CCc2ccc(NS(=O)(=O)c3ccc(Cl)cc3)cc2C1 [Example 10, (R)-4-Chloro-N-[7-(dipropylamino)-5,6,7,8-tetrahydro-2-naphthalenyl]benzenesulfonamide] | 324 | 18 | –
